From patent US20250171744A1, “METHODS OF REPROGRAMMING SOMATIC CELLS AND MATERIALS RELATED THERETO” (CITY OF HOPE, priority 2019, published 2025)

Legend:
293T cells = test: Embryoid body formation from SSEA4 positive sorted cells (FIG. 27); type: cell-based, human
Protocol: HEK293T and HF57 were treated with MTX and PTX for 7 or more days in low methionine condition. SSEA4 positive cells were sorted using cell sorter and maintained on mTeSR™ Plus medium supplemented with HT.
293T cells were treated with MTX and/or PTX for 10 or more days. SSEA4 positive cells were sorted using single cell sorter and maintained on mTeSR1 medium. […] FIGS. 28-29 show the three-germ layer immunostaining of putative pluripotent stem cells derived from 293T cells treated with MTX and PTX.

[1] = system: MTX/PTX treated, SSEA4 positive cells; test: Neural differentiation (FIG. 30); type: cell-based, human; details: neural differentiation medium, laminin coated plates, 10-15-days
Protocol: For neural differentiation, MTX/PTX treated, SSEA4 positive cells were initially grown onto Matrigel-coated 6-well plates in mTeSR1 medium. To induce neural differentiation, the cells were dissociated and passaged onto laminin (20 μg ml−1; Sigma-Aldrich, USA) coated plates and grown in Neurobasal medium (Thermo Fisher Scientific, USA) or RPMI1640 medium (Gibco, USA) for 10-15-days at 37° C./5% CO2. The medium was supplemented with 1% serum free B-27 (Gibco, USA), 1% Glutamax (Gibco, USA), 1% NEAA (Gibco, USA), and 1% penicillin/streptomycin (Gibco, USA).

HF57 cells [2] = test: Histone methylation levels (FIG. 19); type: cell-based, human; details: vs control
Protocol: (§1) Calculation of methylation level (based on OD values as shown on y-axis) was performed according to manufacturer's instructions. Representative histogram from three independent experiments are shown. All data are presented as the mean±standard error (SE) of triplicate measurements. *P<0.05, ***P<0.001.

HEK293T cells [3] = test: Histone methylation levels (FIG. 19); type: cell-based, human; details: vs control
Protocol: as §1

HEK293T cells [4] = test: 3-germ layer immunocytochemistry of embryoid bodies (FIG. 29); type: cell-based, human; details: compared with H1 and iPSCs
Excerpt: (§2) Pluripotent cells can differentiate into all cell types, so these cells can be a biological resource for regenerative medicine. Somatic cells can acquire the embryonic stem cell-like pluripotency by the introduction of four transcription factors, Oct4, Sox2, Klf4 and c-Myc (Yamanaka factors). Murine ES-like cell lines were established from mouse embryonic fibroblasts (MEFs) and skin fibroblasts by simply expressing these four transcription factor genes encoding Oct4, Sox2, Klf4, and c-Myc (71). After introducing active transcription factors into somatic cells, the somatic cells closely resemble ES cells in gene expression patterns, cell biologic and phenotypic characteristics. Since then, numerous studies have established that these transcription factors mediate reprogramming regardless of developmental origins and epigenetic states of a cell. These transcription factors are non-functional in somatic cells due to gene silencing. […] Using the technology disclosed herein, nuclear reprogramming of somatic cells was induced possibly due to active Oct4, Sox2, Nanog, and other pluripotency genes, reduced DNA methylation, reduced histone methylation, and altered metabolism of certain biochemical factors (such as glutamine, glutamate, and GABA). This leads to the formation of embryoid bodies from single cells and differentiation into the mesoderm, endoderm, and neuronal ectoderm lineages with high efficiency in the differentiation medium. The 3-Germ Layer Immunocytochemistry Kit (ThermoFisher Scientific, USA), which analyzes spontaneously differentiated embryoid bodies derived from pluripotent stem cells for the presence of all 3-germ layers, was used to confirm the reprogramming. The assay detected widely accepted markers characteristic of the three embryonic germ layers: beta-Ill tubulin (TUJ1) for ectoderm, smooth muscle actin (SMA) for mesoderm, and alpha-fetoprotein (AFP) for endoderm. […] The ectoderm which differentiates to form the nervous system (spine, peripheral nerves, neurons, and brain) was not tested with this kit; however, the presence of neurons was confirmed by a different marker. A Human Neural Stem Cell Immunocytochemistry Kit (ThermoFisher Scientific, USA) which enables a convenient image-based analysis of common markers of human neural stem cells such as Nestin was used. […] Together, the disclosed methods result in the presence of all 3-germ layers in the MTX/PTX treated cells and these treated cells can differentiate into all cell types including beta cells.
(§3) A 3-germ layer immunocytochemistry kit (Thermo Fisher Scientific, USA) was used to assess the pluripotency of embryoid bodies derived from MTX and PTX treated cells.

HF57 = test: as above; type: cell-based, human; details: compared with H1 and iPSCs
Excerpt: as §2, §3

[5] = Cell viability after MTX or PTX treatment (FIG. 17); type: cell-based; details: human; for viability: post MTX or PTX treatment; for viability at 5 days: HEK293T cells, after 5-days of MTX or PTX treatment, read-out: viable cells
Protocol: Call quantification, imaging, and statistical analysis: Cells were quantified using a Cellometer Auto T4 counting chamber after mixing in a 1:1 ratio with Trypan blue (MilliporeSigma) to exclude dead cells. The average of 2 separate counts was taken to calculate the cell numbers. All live cell imaging was conducted using an EVOS FL Auto microscope (Thermo Fisher Scientific). All statistical analysis was performed using a paired Student's t test with Bonferroni correction or 1-sample Student's t test. Values of P<0.05 were considered significant.

HF57 cells [6] = test: Global DNA methylation, 5mC ELISA (FIG. 18); type: cell-based, human; details: 7-days; vs untreated cells
Protocol: Equal amount of DNA (100 ng) was analyzed with 5mC enzyme-linked immunosorbent assay (ELISA) (EpiGentek). […] Error bars represent the standard error for at least three independent experiments and three technical replicates.
Global DNA methylation measurement Global 5-methylcytosine (5-mC) levels were quantified using the MethylFlash Methylated DNA Quantification Kits (Epigentek, Farmingdale, NY, USA). The DNA concentration was determined using the Qubit Assay (Thermo Fisher Scientific) according to the manufacturer's protocol. Briefly, 100 ng of DNA was used for incubation with both capture and detection antibodies using MethylFlash Methylated DNA Quantification Kit (Colorimetric) from Epigentek. Subsequently, measurements of the absorbance of the sample at 450 nm in a microplate spectrophotometer (BioTek Instruments, Winooski, VT, USA) were performed with the percentage of the whole genome 5-mC calculation according to manufacturer's instructions. Genomic methylation levels in study samples were expressed as percentage of 5-mC.

[7] = treated 7 or more days, low methionine, mTeSR Plus + HT, after 15-days
[8] = treated 10 or more days, mTeSR1 medium, after 10-days

SMILES	embryoid body formation (293T cells; [7])	embryoid body formation (293T cells; [8])	differentiation into neural cells [1]	Dimethyl H3-K9 methylation (HF57 cells [2])	global histone H3-K4 methylation (HF57 cells [2])	Dimethyl H3-K9 methylation (HEK293T cells [3])	global histone H3-K4 methylation (HEK293T cells [3])	presence of three germ layers in embryoid bodies (HEK293T cells [4])	presence of three germ layers in embryoid bodies (HF57)	viability ([5]; HDF fibroblast cell line)	viability at 5 days [5]	viability ([5]; HF57 fibroblast cell line)	global DNA methylation (5mC content) (HF57 cells [6])
CN(Cc1cnc2nc(N)nc(N)c2n1)c1ccc(C(=O)N[C@@H](CCC(=O)O)C(=O)O)cc1 [MTX, methotrexate]	formed embryoid bodies	started forming embryoid bodies	can differentiate into neural cells	significantly reduced	significantly reduced	significantly reduced	significantly reduced	confirmed the presence of all three germ layers	confirmed the presence of all three germ layers	60 to 75%	20 to 25%	60 to 75%	significant reduction in global DNA methylation
Nc1nc2[nH]cc(CCc3ccc(C(=O)N[C@@H](CCC(=O)O)C(=O)O)cc3)c2c(=O)[nH]1 [PTX, pemetrexed]	formed embryoid bodies	started forming embryoid bodies	can differentiate into neural cells	significantly reduced	significantly reduced	significantly reduced	significantly reduced	confirmed the presence of all three germ layers	confirmed the presence of all three germ layers	60 to 75%	20 to 25%	60 to 75%	significant reduction in global DNA methylation
